Data taken from the supplement of paper PMC10307832.

Legend:
Experiment in all cases: relative viability (nuclei count vs DMSO), 5 days (fraction); higher = more cells survive
[1] = compound: Cc1ccc(C(=O)Nc2cccc(C(F)(F)F)c2)cc1Nc1cncc(C(N)=O)c1 [ALW-II-49-7] + COc1cccc2cc(-c3nc([C@H]4CC[C@H](C(=O)O)CC4)n4ncnc(N)c34)[nH]c12 [OSI-027] (partner 0.5 µM)
Procedure, shortened: (§1)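 Lung cancer cell lines in 1536-well plates got either a single drug or a fixed anchor-drug dose together with five library-drug doses (not always all listed) in √10 steps, by pin tool, on the day after seeding. Nuclei were counted after 5 days, and relative viability is the treated-to-vehicle ratio of nuclei counts. Values are medians of duplicate plates.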

[2] = compound: Cc1ccc(C(=O)Nc2cccc(C(F)(F)F)c2)cc1Nc1cncc(C(N)=O)c1 [ALW-II-49-7] + CS(=O)(=O)N1CCN(Cc2cc3nc(-c4cccc5[nH]ncc45)nc(N4CCOCC4)c3s2)CC1 [Pictilisib] (partner 1 µM)
Procedure, shortened: as §1

[3] = compound: Cc1ccc(C(=O)Nc2cccc(C(F)(F)F)c2)cc1Nc1cncc(C(N)=O)c1 [ALW-II-49-7] + CC1(C)CCC(c2ccc(Cl)cc2)=C(CN2CCN(c3ccc(C(=O)NS(=O)(=O)c4ccc(N[C@H](CCN5CCOCC5)CSc5ccccc5)c(S(=O)(=O)C(F)(F)F)c4)cc3)CC2)C1 [Navitoclax] (partner 0.5 µM)
Procedure, shortened: as §1

| Cell Line | relative viability ([1]; first compound 0.08 µM) | relative viability ([1]; first compound 0.253 µM) | relative viability ([1]; first compound 0.8 µM) | relative viability ([1]; first compound 2.53 µM) | relative viability ([1]; first compound 8 µM) | relative viability ([2]; first compound 0.08 µM) | relative viability ([2]; first compound 0.253 µM) | relative viability ([2]; first compound 0.8 µM) | relative viability ([2]; first compound 2.53 µM) | relative viability ([2]; first compound 8 µM) | relative viability ([3]; first compound 0.08 µM) | relative viability ([3]; first compound 0.253 µM) | relative viability ([3]; first compound 0.8 µM) | relative viability ([3]; first compound 2.53 µM) | relative viability ([3]; first compound 8 µM) |
| --- | --- | --- | --- | --- | --- | --- | --- | --- | --- | --- | --- | --- | --- | --- | --- |
| NCI-H1915 | 0.662 | 0.653 | 0.573 | 0.49 | 0.381 | 0.945 | 1.18 | 0.966 | 0.818 | 0.645 | 0.771 | 0.823 | 0.733 | 0.764 | 0.705 |
| NCI-H1944 | 0.393 | 0.413 | 0.397 | 0.353 | 0.303 | 0.314 | 0.371 | 0.328 | 0.364 | 0.324 | 1.06 | 1.14 | 0.991 | 1.11 | 1.07 |
| NCI-H1975 | 0.555 | 0.785 | 0.72 | 0.553 | 0.486 | 0.282 | 0.308 | 0.232 | 0.287 | 0.281 | 1.06 | 1.05 | 0.993 | 0.919 | 0.998 |
| NCI-H1993 | 0.486 | 0.521 | 0.535 | 0.601 | 0.521 | 0.79 | 1.01 | 0.746 | 0.807 | 0.619 | 0.85 | 0.927 | 0.904 | 0.785 | 1.08 |
| NCI-H2009 | 0.615 | 0.67 | 0.532 | 0.408 | 0.406 | 0.836 | 0.828 | 0.783 | 0.575 | 0.438 | 1.1 | 1.16 | 1.12 | 0.904 | 0.983 |
| NCI-H2023 | 0.379 | 0.44 | 0.37 | 0.354 | 0.3 | 0.244 | 0.206 | 0.251 | 0.221 | 0.217 | 0.925 | 1.1 | 1.03 | 1.01 | 1.02 |
| NCI-H2085 | 0.778 | 0.748 | 0.625 | 0.806 | 0.738 | 0.499 | 0.496 | 0.445 | 0.5 | 0.537 | 1.13 | 1.15 | 1.14 | 1.18 | 1.08 |
| NCI-H2087 | 0.578 | 0.537 | 0.525 | 0.547 | 0.51 | 1.12 | 1.14 | 0.722 | 0.959 | 0.933 | 1.12 | 0.937 | 0.838 | 0.907 | 0.949 |
| NCI-H2126 | 0.664 | 0.64 | 0.65 | 0.607 | 0.653 | 0.493 | 0.473 | 0.514 | 0.471 | 0.502 | 0.86 | 0.934 | 0.855 | 0.877 | 0.862 |
| NCI-H2170 | 0.71 | 0.931 | 0.67 | 0.664 | 0.703 | 0.25 | 0.302 | 0.294 | 0.317 | 0.286 | 0.701 | 0.568 | 0.569 | 0.655 | 0.592 |
| NCI-H2228 | 0.502 | 0.269 | 0.496 | 0.59 | 0.471 | 0.477 | 0.464 | 0.428 | 0.34 | 0.254 | 1.4 | 0.809 | 0.628 | 0.838 | 0.84 |
